Test results as given in patent US6890727B2, “Diagnostic assay for Alzheimer's disease: assessment of Aβ abnormalities” (The General Hospital Corporation, priority 1994, dated 2005).
Where two headings read alike, the source gives them in different places. One block for each compound: values may come before it.

What was measured:
[1] = 65Zn2+ binding to immobilized peptide (dot-blot, Scatchard competition analysis); conditions: for zinc binding (in words): dot-blot or blot of tryptic digest probed with ^65Zn^2+
Method: ^65Zn^2+ Binding Studies—Dissolved peptides (1.2 nMol, unless other wise stated) were dot-blotted onto polyvinylidene difluoride membrane (0.2-μm pore size; Pierce Chemical Co.), washed twice with chelating buffer (200 μl×100 mM NaCl, 20 mM Tris-HCl, 1 mM EDTA, pH 7.4), then five times with blocking buffer (200 μl×100 mM NaCl, 20 mM Tris-HCl, 1 mM MnCl2, pH 7.4), and then incubated (60 min, 20° C.) with ^65Zn (unless otherwise stated 130,000 cpm, […] ^65ZnCl2 in 200 μl of blocking buffer±competing metal ion chloride). The dot-blot was then washed with blocking buffer (5×200 μl), the dot excised, placed in a test tube, and assayed by γ-counting (11% efficiency). The equilibration volume for stoichiometry estimates was regarded as 6×200 μl. The 214 nm UV absorbance of the unbound flow-through was assayed to determine the total amount of peptide remaining bound onto the membrane. […] To alter the pH, the ^65Zn incubation was carried out in the presence of 100 mM buffer: MOPS (pH 6.5-7.0), MES (pH 5.0-6.0), acetate (pH 3.5-4.5). The dot-blot apparatus was washed with detergent and EDTA (50 mM) then rinsed and siliconized between use.
Aliquots of Aβ were incubated (60 min) with ^65Zn^2+ in the presence of varying concentrations of unlabeled Zn^2+ (0.01-50 μM total). Values shown are means±S.D., n≧3. […] (FIG. 1b) depicts specificity of the Zn^2+ binding site for various metals. Aβ was incubated (60 min) with ^65 Zn^2+ (157 nM, 138,000 cpm) and competing unlabeled metal ions (50 μM total). […] Percent binding of total counts ^65Zn^2+/min added is corrected for the amounts (in nanomoles) of peptides adhering to the membrane. […] 157 nM ^65Zn (138,000 cpm) is used in this experiment to probe immobilized peptide (1.6 nmol).

Aβ = biological target: T1, Aβ (Homo sapiens, UniProt P05067); assay: G50 gel filtration chromatography of Aβ in presence of metal ions or EDTA; conditions: metal ion 25 μM
T1 construct: purchased Sigma; Bachem (results also replicated with peptide from the Keck Laboratory, Yale); host or cells: chemical synthesis
Method: Aβ was stored in aliquots of 0.52 mg/ml in water at −20° C., then kept at 4° C. when thawed. Reagents were mixed without vortex mixing. The incubated Aβ was directly applied to a G50 SF (Pharmacia, Uppsala, Sweden) column (Bio-Rad Econo-Column, 30×0.7 cm) pre-equilibrated with metal salt solution or EDTA (50 μM) in TBS at 20° C. and eluted at 8 ml/h (Wiz peristaltic pump, Isco, Lincoln, Nebr.). Absorbance was measured at 254 and 214 nm (Type 6 optical unit, Isco). The amount of Aβ eluting at various peaks was estimated from the area under the curve. […] Because the sample eluted in a volume of approximately 15 ml, the average concentration of the peptide on the column was 0.8 μM.
To study the effects of protein blocking upon adsorption of β to the chromatography column, a Sephadex G50 SF column which had been characterized previously for Aβ behavior was eluted with 3% bovine serum albumin (BSA) in TBS (50 ml) and equilibrated with non-BSA-containing buffer, subsequent to repeating the Aβ experiments.
The elution points of molecular mass standards and relative assignments of Aβ peak elutions are indicated. Mass standards were blue dextran (2×10^6 kDa, V0=void volume), BSA (66 kDa), carbonic anhydrase (29 kDa), cytochrome c (12.4 kDa), and aprotinin (6.5 kDa). The mass of Aβ is 4.3 kDa. […] Data for experiments performed in the presence of copper were taken from 214 nm readings and corrected for comparison.

[2] = 65Zn2+ binding to immobilized peptide (dot-blot, Scatchard competition analysis); conditions: 74 nM ^65Zn^2+, corrected for peptide on membrane
trypsin = assay: Tryptic digestion of Aβ after incubation with Zn2+; assay type: biochemical; conditions: increasing zinc concentrations
Method: Tryptic Digestion of Aβ-Aβ1-40 (13.9 μg) was incubated with Zn^2+ ([…] in blocking buffer, 1 h, 37° C.) and then digested with trypsin (12 ng, 3 h, 37° C.). The reaction was stopped by adding SDS sample buffer containing phenylmethylsulfonyl fluoride (1 mM), boiling the samples (5 min), and applying the samples to Tris/Tricine gel electrophoresis and transfer. The blot was washed with EDTA, Coomassie-stained, incubated with ^65Zn^2+, individual bands were excised, assayed for ^65Zn^2+ binding, and N-terminal sequenced to confirm the identity of the digestion products. The effects of Zn^2+ (up to 100 μM in TBS) on the activity of trypsin, itself, were assayed by assay of Z-Arg-amido-4-methylcoumarin (Sigma) fluorescent cleavage product and determined to be negligible.
(FIG. 4a) depicts a blot of tryptic digests of Aβ (13.9 μg) after incubation with increasing concentrations of zinc (lane labels, in micromolar), stained by Coomassie Blue. […] The migration of the low molecular size markers (STD) are indicated (in kilodaltons) on the right. (FIG. 4b) depicts ^65Zn^2+ binding to Aβ tryptic digestion products. The blot in 4a was incubated with ^65Zn^2+, the visible bands excised, and the bound counts for each band determined.

[3] = not given; remark: listed apart in the source
[4] = Zinc-induced tinctorial amyloid formation (Congo Red, polarized light); assay type: physicochemical; conditions: Congo Red
Method: FIGS. 8a and 8b are photographs showing zinc-induced tinctorial amyloid formation. […] The particle diameter is 40μ. […] The experiment was repeated with EDTA (50 μM) substituted for Zn^2+ and yielded no visible material.
The particle diameter is 40μ. […] The experiment was repeated with EDTA (50 μM) substituted for Zn^2+ and yielded no visible material.

T1 sequence (P05067 672-711): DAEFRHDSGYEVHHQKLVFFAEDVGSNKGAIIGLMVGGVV

zinc binding (in words) [1]: unable to bind zinc
Compound: 25-35: Aβ fragment covering a region of the carboxyl terminus, residues 25-35 (GSNKGAIIGLM; Amyloid-beta protein 40; UniProt P05067 696-706, looked up, fragment)

Compound: [Ag+2] [Ag^2+]
reduction in eluted peptide (Aβ): 60%

Compound: [Al+3] [Al^3+]
total Zn^2+ concentration with similar or comparable effect on Aβ chromatography (Aβ): ~3 µM

Compound: [Ba+2] [Ba^2+]
reduction in eluted peptide (Aβ): 60%

Compound: [Ca+2] [Ca^2+]
reduction in eluted peptide (Aβ): 60%

Compound: [Co+2] [Co^2+]
total Zn^2+ concentration with similar or comparable effect on Aβ chromatography (Aβ): ~10 µM

Compound: [Cu+2] [Cu^2+, copper]
effect on eluted Aβ species (monomer, dimer, polymer) (Aβ): dramatic increase in Aβ dimerization

Compound: [Fe+2] [Fe^2+]
total Zn^2+ concentration with similar or comparable effect on Aβ chromatography (Aβ): ~10 µM

Compound: [Mg+2] [Mg^2+]
reduction in eluted peptide (Aβ): 60%

Compound: [Ni+2] [Ni^2+]
total Zn^2+ concentration with similar or comparable effect on Aβ chromatography (Aβ): ~10 µM

Compound: [Pb+2] [Pb^2+]
effect on eluted Aβ species (monomer, dimer, polymer) (Aβ): most strongly promotes the elution of the monomeric peptide, abolishing high order polymers
total Zn^2+ concentration with similar or comparable effect on Aβ chromatography (Aβ): ~0.4 µM

abolition of ^65Zn^2+ binding to Aβ ([1]; Tris 150 mM): ≈ 50%
abolition of ^65Zn^2+ binding to Aβ ([1]; Tris 500 mM): ≈ 95%
Compound: NC(CO)(CO)CO [Tris]

zinc binding (in words) [1]: clearly binds zinc
^65Zn^2+ binding compared with Aβ1-40 [2]: 30 % of Bmax
Compound: Aβ1-28: fragment of Aβ, residues 1-28

zinc binding (in words) [1]: binds zinc
Compound: Aβ6-40: 3.6 kDa tryptic digestion product of Aβ1-40
effect of zinc on rate of tryptic digestion of the peptide (trypsin): is inhibited by the presence of zinc

zinc binding (in words) [1]: does not bind zinc
Compound: Aβ17-40: 2.1 kDa tryptic digestion product of Aβ1-40, equivalent to post-secretase carboxyl-terminal product (LVFFAEDVGSNKGAIIGLMVGGVV; Amyloid-beta protein 40; UniProt P05067 688-711, looked up, fragment)
effect of zinc on rate of tryptic digestion of the peptide (trypsin): is not inhibited by increasing zinc concentrations

zinc binding (in words) [1]: does not interfere with ^65Zn^2+ binding
Compound: gln11: Aβ1-28 where residue 11 is glutamine (DAEFRHDSGYQVHHQKLVFFAEDVGSNK; Amyloid-beta protein 40; UniProt P05067 672-699, looked up, variant E11Q)

Compound: rat Aβ1-40: rat/mouse species of Aβ1-40; Arg→Gly, Tyr→Phe, His→Arg at positions 5, 10 and 13 (DAEFGHDSGFEVRHQKLVFFAEDVGSNKGAIIGLMVGGVV; Amyloid-beta protein 40; UniProt P08592 672-711, looked up)
proportion of particles >0.1μ (EDTA, peptide 1.6 μM): 36%
proportion of particles >0.22μ (EDTA, peptide 1.6 μM): 27%
proportion of particles >0.65μ (EDTA, peptide 1.6 μM): 25%
increase of proportion of >0.1μ particles following incubation with Zn^2+ (Zn^2+ 25 μM vs EDTA): 20%
increase of proportion of >0.22μ particles following incubation with Zn^2+ (Zn^2+ 25 μM vs EDTA): 30%
proportion of particles >0.65μ (Zn^2+ 25 μM, peptide 1.6 μM): increased only slightly
peptide aggregated into >0.2μ particles ([3]; EDTA, higher peptide concentrations): ≈ 15%
peptide aggregated into >0.2μ particles ([3]; EDTA, peptide 0.8 μM): no detectable aggregation
peptide aggregated into >0.2μ particles ([3]; Zn^2+ 25 μM, peptide 0.8 μM): no aggregation
peptide aggregated into >0.2μ particles ([3]; Zn^2+ 25 μM, peptide 4 μM): 25%
zinc concentration at which aggregation was observed ([3]; peptide 1.6 μM): 25 µM
zinc concentration up to which the peptide remains stable ([3]; peptide 1.6 μM): up to 10 μM
Zn^2+ concentration inducing amyloid by tinctorial criteria [4]: ≥ 10 µM
